Measurements taken from patent US20160010094A1, “TRANSGENIC CELL SELECTION” (UNIVERSITE DE GENEVE, priority 2013, published 2016).

Experiments:
[1] = system: Hela cells expressing HU and TMTX resistance gene; assay: Hydroxyurea and Trimetrexate cytotoxic assay: selective enrichment of transduced (GFP positive) Hela cells by FACS; assay type: cell-based; settings: three days, FIG. 2
Protocol: Control and transduced Hela cells were incubated with HU and TMTX for 3 days, after which survival rate of both cell population were measured by FACS analysis. Hela cells were transduced with lentivector expressing GFP and the Hydroxyurea or Trimetrexate resistance genes. Three to five days after transduction, cell transduction efficiency was determined by measuring GFP fluorescence. Transduced Hela cells were treated with the appropriate concentration of cytotoxic compounds and survival rate were measured by FACS analysis. Next, the ability of either HU or TMTX to selectively enrich transduced Hela cells was evaluated by FACS. Hela cells were transduced as outlined above and then cultured in control media or media including 25 μM HU, 100 μM HU, 1 nM TMTX or 10 nM TMTX. After culture in the indicated conditions for three days, the proportion of transduced cells (GFP positive) versus non-transduced cells was determined by FACS and the results plotted.

[2] = system: GFP expressing blood cells; assay: In vivo selective enrichment of blood cells expressing HU resistance gene after bone marrow transplantation; parameters: species or system C57/B16 mice
Protocol: FIG. 3: In vivo selective enrichment of blood cells expressing HU and TMTX resistance gene. Bone marrow transplantation experiments were performed in C57/b16 mice. Total bone marrow was obtained from large bones of C57/B16 mice and maintained for 24 h in IMDM medium supplemented with 100 ng/ml of SCF. Bone marrow cells were then transduced with 10^9 lentivector particles for 8 hours before being injected into the tail vein of irradiated C57/B16 mice. Six to eight weeks later, blood samples were taken and GFP expression was measured by FACS. After which mice were injected intraperitoneally with either HU or TMTX with initial doses of HU of 200, 500 and 1000 mg/kg per day and initial doses of TMTX of 10, 25, 50 mg/kg with 2 injections per week. GFP expressing blood cells were measured once a week. (A) Irradiated mice, transplanted with bone marrow cells and transduced with a lentivector expressing GFP and the hydroxyurea resistance (GFP-HU).
In order to more directly assess the ability of HU and TMTX to select cells in vivo studies were undertaken in mice injected with transduced cells. […] Six to eight weeks later, blood samples were taken and GPF expression was measured by FACS. […] GFP expressing blood cells were measured once a week.

SMILES	selection of transduced cells (GFP positive versus non-transduced, FACS) ([1]; 25 μM HU and 100 μM HU)	transient increase in GFP-positive leukocytes ([2]; irradiated mice transplanted with bone marrow cells transduced with GFP-HU lentivector, hydroxyurea-treated, FIG. 3A)	circulating GFP positive cells ([2]; some treated animals, one week after HU injection, intraperitoneal, transient increase, FIG. 3)	selection of transduced cells (GFP positive versus non-transduced, FACS) ([1]; 10 nM TMTX (tested at 1 nM and 10 nM))
NC(=O)NO [HU, Hydroxyurea]	modest selection	up to 8%	5%-10%	
COc1cc(NCc2ccc3nc(N)nc(N)c3c2C)cc(OC)c1OC [TMTX, Trimetrexate]				significant selection
